This note sets out measurements from US9381255B2, “Formulations comprising T3 nanoparticles” (Avant Garde Therapeutics and Technologies LLC, priority 2009, dated 2016).

The data set in a line: Blood levels of T3 after intraperitoneal administration in mice. In kind it is in vivo. As to the method:
This T3-nanoparticle is administered intraperitoneally in mice.

In the case of `N[C@@H](Cc1cc(I)c(Oc2ccc(O)c(I)c2)c(I)c1)C(=O)O` [free T3, triiodothyronine], where the note is “intraperitoneal injection, FIG. 8B”, the T3 blood levels entry is reported as “increased T3 blood levels which were followed by a subsequent leveling off”. In addition, the “amount of T3 remaining in the blood over time” value (intraperitoneal, FIG. 8A) is on record as “A lesser amount of T3 remains over time”.
